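Dose response: 5 concentrations. Exposure: 48 h. Format: 96-well plates. Endpoint: linear interpolation; highest concentration if not reached. Here, GI50 denotes the concentration required for 50% inhibition of growth. The concentration for full growth arrest is given as TGI.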
Experiments:
Assay in all cases: NCI tumour cell line growth inhibition, 48 h
[1] = system: HCT-15 colon
[2] = system: HCT-116 colon
[3] = system: SR leukemia
[4] = system: NCI-H226 lung
[5] = system: SK-MEL-28 melanoma
[6] = system: UACC-62 melanoma
[7] = system: SW-620 colon
[8] = system: 786-0 renal
[9] = system: LOX IMVI melanoma
[10] = system: RPMI-8226 leukemia
[11] = system: SK-MEL-5 melanoma
[12] = system: HT29 colon
[13] = system: OVCAR-5 ovarian
[14] = system: KM12 colon
[15] = system: UO-31 renal
[16] = system: SF-295 CNS
[17] = system: NCI-H23 lung
[18] = system: T-47D breast
[19] = system: BT-549 breast
[20] = system: EKVX NSCLC
[21] = system: A549 NSCLC
[22] = system: COLO 205 colon
[23] = system: MDA-MB-231 breast
[24] = system: DU-145 prostate
[25] = system: SNB-19 CNS
[26] = system: HL-60(TB) leukemia
[27] = system: OVCAR-8 ovarian
[28] = system: A498 renal
[29] = system: UACC-257 melanoma
[30] = system: SK-MEL-2 melanoma
[31] = system: RXF 393 renal
[32] = system: SN12C renal
[33] = system: NCI-H522 lung
[34] = system: TK-10 renal
[35] = system: CCRF-CEM leukemia
[36] = system: U251 CNS
[37] = system: MOLT-4 leukemia
[38] = system: NCI-H460 lung
[39] = system: PC-3 prostate
[40] = system: NCI/ADR-RES ovarian
[41] = system: HOP-62 NSCLC
[42] = system: SF-268 CNS
[43] = system: MCF7 breast
[44] = system: HS 578T breast
[45] = system: SF-539 CNS
[46] = system: CAKI-1 renal
[47] = system: IGROV1 ovarian
[48] = system: M14 melanoma
[49] = system: ACHN renal
[50] = system: K-562 leukemia
[51] = system: HOP-92 NSCLC
[52] = system: OVCAR-3 ovarian
[53] = system: HCC-2998 colon

Compound Cc1ccc(/C=C2/SC(Nc3nc(-c4nc(NC5=NC(=O)/C(=C\c6ccc(C)cc6)S5)sc4C)c(C)s3)=NC2=O)cc1 has a GI50 [1] of 347 nM, a TGI [1] of over 19600 nM and a GI50 [2] of 9200 nM. It also gave a TGI [2] of 20900 nM, a GI50 [3] of 373 nM and a TGI [3] of over 50000 nM. It also gave a GI50 [4] of 2320 nM, a TGI [4] of over 30400 nM and a GI50 [5] of 35300 nM. It also gave a TGI [5] of over 50000 nM, a GI50 [6] of 75.9 nM and a TGI [6] of 1710 nM. For the same compound, the GI50 [7] was 714 nM, the TGI [7] was over 50000 nM and the GI50 [8] was 487 nM. It also gave a TGI [8] of 8400 nM, a GI50 [9] of 287 nM and a TGI [9] of 12200 nM. The GI50 [10] was 1270 nM, the TGI [10] was over 15000 nM and the GI50 [11] was 77 nM. For the same compound, the GI50 [12] was 3620 nM, the TGI [12] was over 50000 nM and the GI50 [13] was 8050 nM. The TGI [13] was over 50000 nM, the GI50 [14] was 289 nM and the TGI [14] was 18600 nM. The GI50 [15] was 6030 nM, the TGI [15] was over 50000 nM and the TGI [16] was 874 nM. For the same compound, the GI50 [17] was 895 nM, the TGI [17] was 8460 nM and the GI50 [18] was 22300 nM. For the same compound, the TGI [18] was over 50000 nM, the GI50 [19] was 1210 nM and the TGI [19] was 31900 nM. It also gave a GI50 [20] of 33.9 nM, a TGI [20] of 150 nM and a GI50 [21] of 1370 nM. The TGI [21] was over 36600 nM, the GI50 [22] was 35200 nM and the TGI [22] was over 50000 nM. It also gave a GI50 [23] of 1360 nM, a TGI [23] of 19900 nM and a GI50 [24] of 531 nM. For the same compound, the TGI [24] was over 9820 nM, the GI50 [25] was 10100 nM and the TGI [25] was over 50000 nM. It also gave a GI50 [26] of 368 nM, a TGI [26] of over 50000 nM and a GI50 [27] of 1660 nM. The TGI [27] was over 31600 nM, the GI50 [28] was 1400 nM and the TGI [28] was 7520 nM. It also gave a GI50 [29] of 1040 nM, a TGI [29] of 20500 nM and a GI50 [30] of 36300 nM. It also gave a TGI [30] of over 50000 nM, a GI50 [31] of 282 nM and a TGI [31] of 3650 nM. For the same compound, the GI50 [32] was 957 nM, the TGI [32] was 18300 nM and the GI50 [33] was 857 nM. It also gave a TGI [33] of 25900 nM, a GI50 [34] of 288 nM and a TGI [34] of 1210 nM. The GI50 [35] was 2440 nM, the TGI [35] was over 50000 nM and the GI50 [36] was 322 nM. For the same compound, the TGI [36] was 38900 nM, the GI50 [37] was over 19700 nM and the TGI [37] was over 50000 nM. For the same compound, the GI50 [38] was 643 nM, the TGI [38] was over 50000 nM and the GI50 [39] was 757 nM. For the same compound, the TGI [39] was over 50000 nM, the GI50 [40] was 435 nM and the TGI [40] was over 12700 nM. It also gave a GI50 [41] of 5 nM, a TGI [41] of 2650 nM and a GI50 [42] of 2510 nM. For the same compound, the TGI [42] was over 50000 nM, the GI50 [43] was 1010 nM and the TGI [43] was over 50000 nM. The GI50 [44] was 92.6 nM, the TGI [44] was 1140 nM and the GI50 [45] was 379 nM. For the same compound, the TGI [45] was 1840 nM, the GI50 [46] was 484 nM and the TGI [46] was 9410 nM. The GI50 [47] was 7290 nM, the TGI [47] was over 50000 nM and the GI50 [48] was 64.2 nM. For the same compound, the TGI [48] was 1210 nM, the GI50 [49] was 559 nM and the TGI [49] was over 29600 nM. The GI50 [50] was 418 nM, the TGI [50] was over 50000 nM and the GI50 [51] was 17100 nM. For the same compound, the TGI [51] was over 47800 nM, the GI50 [52] was 329 nM and the TGI [52] was 1510 nM. For the same compound, the GI50 [53] was 1710 nM and the TGI [53] was 9920 nM.

From PubChem BioAssay (NCI)
